# System: various cell lines of different tumor origins
# Assay: Inhibition of cell proliferation, InCell Analyzer assay
# Assay type: cell-based
# Description: C. Inhibition of Cell Proliferation
# For InCell Analyser assay, various cell lines of different tumor origins were grown to 70-80% confluency in appropriate culture media containing 10% fetal bovine serum at 37° C. in a 5% CO2 incubator. On day-1, cells were seeded at 2 densities in 384-well plates and incubated at 37° C. overnight. Stock compound plates were prepared in advance which contained dimethyl sulfoxide (DMSO) alone and a 9-point half-log decreasing dose range of the compound of Example 22 in DMSO. The compound plates were stored at −80° C. and each plate was only thawed once and used. On day 0, the main assay plates received compound or DMSO via a sonic delivery system (ECHO). The highest final concentration of compound of the dose range in the culture plates was 10 uM. These plates were cultured at 37° C. for 3 days. […] On day 3, the compound treated plates were stained and fixed to measure proliferation, apoptosis, and mitotic index using an InCell1000 analyser. A nuclear stain was used to identify cells in the wells. By counting the number of nuclei, the proliferation index of compound treated groups were calculated as a percentage relative to the DMSO control, which was set to 100%. The IC50 values were calculated using model 205 in ExcelFit.
smiles,measurement,setting,value
"COc1cc(N2CCC(N3CCCCC3)CC2)ccc1Nc1nccc(-c2c(-c3cccc(C(=O)Nc4c(F)cccc4F)c3)nc3ccccn23)n1 [Example 22, 3-[3-(2-{[4-(1,4′-bipiperidin-1′-yl)-2-(methyloxy)phenyl]amino}-4-pyrimidinyl)imidazo[1,2-a]pyridin-2-yl]-N-(2,6-difluorophenyl)benzamide]",IC50,"5637, Bladder",> 5 µM
same,IC50,"A7, Skin",1 to 5 µM
same,IC50,"AGS, Stomach",1 to 5 µM
same,IC50,"B-cell, BC-1, lymphoma - B cell unspecified",1 to 5 µM
same,IC50,"B-cell, BC-2, lymphoma - B cell unspecified",1 to 5 µM
same,IC50,"B-cell, BC-3, lymphoma - B cell unspecified",1 to 5 µM
same,IC50,"B-cell, DB, lymphoma - diffuse large B cell",1 to 5 µM
same,IC50,"C3A, Liver",1 to 5 µM
same,IC50,"C32TG, Skin",1 to 5 µM
same,IC50,"C-4I, Cervix",1 to 5 µM
same,IC50,"CEM/C1, CEM/C1, acute lymphoblastic leukaemia",> 5 µM
same,IC50,"CESS, AML",> 5 µM
same,IC50,"CML-T1, CML-T1, CML blast phase",< 1 µM
same,IC50,"COLO 704, COLO-704, Ovary",> 5 µM
same,IC50,"CRO-AP5, CRO-AP5, lymphoma - B cell unspecified",> 5 µM
same,IC50,"DK-MG, glioma",1 to 5 µM
same,IC50,"EM-2, CML blast phase",> 5 µM
same,IC50,"ES2, Ovary",1 to 5 µM
same,IC50,"GCT, Sarcoma",1 to 5 µM
same,IC50,"H4, glioma",> 5 µM
same,IC50,"HN5, H&N",1 to 5 µM
same,IC50,"HOS, Sarcoma",< 1 µM
same,IC50,"HT-3, Cervix",> 5 µM
same,IC50,"Homo sapiens, 639-V, Bladder",1 to 5 µM
same,IC50,"Homo sapiens, 647-V, Bladder",1 to 5 µM
same,IC50,"Homo sapiens, 769-P, Kidney",1 to 5 µM
same,IC50,"Homo sapiens, 786-0, 786-0, Kidney",1 to 5 µM
same,IC50,"Homo sapiens, A101D, Skin",1 to 5 µM
same,IC50,"Homo sapiens, A 172, A172, glioma",1 to 5 µM
same,IC50,"Homo sapiens, A204, A204, Sarcoma - rhabdomyosarcoma",1 to 5 µM
same,IC50,"Homo sapiens, A498, A-498, Kidney",1 to 5 µM
same,IC50,"Homo sapiens, A673, A673, Sarcoma",< 1 µM
same,IC50,"Homo sapiens, A2780, A2780, Ovary",< 1 µM
same,IC50,"Homo sapiens, A-375, A375, Skin",1 to 5 µM
same,IC50,"Homo sapiens, A-427, A427, Lung",1 to 5 µM
same,IC50,"Homo sapiens, A-431, A-431, Skin",< 1 µM
same,IC50,"Homo sapiens, ACHN, Kidney",1 to 5 µM
same,IC50,"Homo sapiens, AN3-CA, AN3CA, Uterus",1 to 5 µM
same,IC50,"Homo sapiens, ARH-77, ARH-77, Myeloma - plasma cell",1 to 5 µM
same,IC50,"Homo sapiens, ASPC1, AsPC-1, Pancreas",< 1 µM
same,IC50,"Homo sapiens, BE(2)-C, BE(2)C, Brain",< 1 µM
same,IC50,"Homo sapiens, BFTC-905, BFTC-905, Bladder",< 1 µM
same,IC50,"Homo sapiens, BHT-101, BHT-101, Thyroid",> 5 µM
same,IC50,"Homo sapiens, BPH-1, BPH1, Prostate",1 to 5 µM
same,IC50,"Homo sapiens, BT-20, BT-20, Breast",1 to 5 µM
same,IC50,"Homo sapiens, BT-474, BT474, Breast",1 to 5 µM
same,IC50,"Homo sapiens, BV-173, BV-173, CML blast phase",1 to 5 µM
same,IC50,"Homo sapiens, BXPC-3, BxPC-3, Pancreas",> 5 µM
same,IC50,"Homo sapiens, BeWo, Placenta",1 to 5 µM
same,IC50,"Homo sapiens, C-4-II, C-4II, Cervix",1 to 5 µM
same,IC50,"Homo sapiens, C-33-A, C-33A, Cervix",1 to 5 µM
same,IC50,"Homo sapiens, CAKI-1, Caki-1, Kidney",> 5 µM
same,IC50,"Homo sapiens, CAKI-2, Caki-2, Kidney",1 to 5 µM
same,IC50,"Homo sapiens, CAL-27, Cal27, H&N",> 5 µM
same,IC50,"Homo sapiens, CAL-54, CAL-54, Kidney",1 to 5 µM
same,IC50,"Homo sapiens, CAL-62, CAL-62, Thyroid",1 to 5 µM
same,IC50,"Homo sapiens, CAPAN-1, Capan-1, Pancreas",< 1 µM
same,IC50,"Homo sapiens, CCF-STTG1, CCF-STTG1, glioma",1 to 5 µM
same,IC50,"Homo sapiens, CGTH-W-1, CGTH-W-1, Thyroid",1 to 5 µM
same,IC50,"Homo sapiens, CHL-1, CHL-1, Skin",1 to 5 µM
same,IC50,"Homo sapiens, CHP-212, CHP-212, neuroblastoma",< 1 µM
same,IC50,"Homo sapiens, COLO-829, Colo-829, Skin",> 5 µM
same,IC50,"Homo sapiens, CRO-AP2, CRO-AP2, lymphoma - B cell unspecified",1 to 5 µM
same,IC50,"Homo sapiens, Caov-3, CAOV-3, Ovary",1 to 5 µM
same,IC50,"Homo sapiens, Capan-2, Capan-2, Pancreas",1 to 5 µM
same,IC50,"Homo sapiens, D283 Med, D283Med, medulloblastoma",1 to 5 µM
same,IC50,"Homo sapiens, DBTRG-05MG, glioma",> 5 µM
same,IC50,"Homo sapiens, DU-4475, DU4475, Breast",1 to 5 µM
same,IC50,"Homo sapiens, Detroit 562, Detroit562, H&N",1 to 5 µM
same,IC50,"Homo sapiens, DoTc2-4510, DoTc2-4510, Cervix",> 5 µM
same,IC50,"Homo sapiens, EFM-19, EFM-19, Breast",1 to 5 µM
same,IC50,"Homo sapiens, EKVX, Lung",1 to 5 µM
same,IC50,"Homo sapiens, FaDu, H&N",1 to 5 µM
same,IC50,"Homo sapiens, G-401, G-401, kidney",1 to 5 µM
same,IC50,"Homo sapiens, G-402, G-402, Kidney",1 to 5 µM
same,IC50,"Homo sapiens, GDM-1, GDM-1, AML",< 1 µM
same,IC50,"Homo sapiens, HCC38, HCC38, Breast",1 to 5 µM
same,IC50,"Homo sapiens, HCC70, HCC70, Breast",1 to 5 µM
same,IC50,"Homo sapiens, HCC1143, HCC1143, Breast",1 to 5 µM
same,IC50,"Homo sapiens, HCC1395, HCC1395, Breast",1 to 5 µM
same,IC50,"Homo sapiens, HCC1937, HCC1937, Breast",> 5 µM
same,IC50,"Homo sapiens, HCC1954, HCC1954, Breast",1 to 5 µM
same,IC50,"Homo sapiens, HCC2157, HCC2157, Breast",> 5 µM
same,IC50,"Homo sapiens, HCC2218, HCC2218, Breast",> 5 µM
same,IC50,"Homo sapiens, HCC 2998, HCC-2998, Colon",1 to 5 µM
same,IC50,"Homo sapiens, HEC-1-A, Uterus",> 5 µM
same,IC50,"Homo sapiens, HEC-1B, HEC-1-B, Uterus",1 to 5 µM
same,IC50,"Homo sapiens, HEL 92.1.7, HEL-92.1.7, erythroleukemia",> 5 µM
same,IC50,"Homo sapiens, HMCB, Skin",1 to 5 µM
same,IC50,"Homo sapiens, HOP-62, HOP-62, Lung",> 5 µM
same,IC50,"Homo sapiens, HOP-92, HOP-92, Lung",1 to 5 µM
same,IC50,"Homo sapiens, HPAC, Pancreas",< 1 µM
same,IC50,"Homo sapiens, HPAF-II, HPAFII, Pancreas",> 5 µM
same,IC50,"Homo sapiens, HT1197, HT1197, Bladder",> 5 µM
same,IC50,"Homo sapiens, HT-29, HT-29, Colon",< 1 µM
same,IC50,"Homo sapiens, HT-1080, HT-1080, Sarcoma - fibrosarcoma",< 1 µM
same,IC50,"Homo sapiens, HT-1376, HT1376, Bladder",> 5 µM
same,IC50,"Homo sapiens, HeLa, Cervix",> 5 µM
same,IC50,"Homo sapiens, Hep3B, Liver",1 to 5 µM
same,IC50,"Homo sapiens, HepG2, HepG2, Liver",1 to 5 µM
same,IC50,"Homo sapiens, Hs746T, Stomach",> 5 µM
same,IC50,"Homo sapiens, HuP-T4, HuP-T4, Pancreas",> 5 µM
same,IC50,"Homo sapiens, HuT78, Hut78, lymphoma - cutaneous T cell",1 to 5 µM
same,IC50,"Homo sapiens, IGROV-1, IGROV1, Ovary",< 1 µM
same,IC50,"Homo sapiens, J-RT3-T3-5, J.RT3-T3.5, acute lymphoblastic leukaemia",1 to 5 µM
same,IC50,"Homo sapiens, JEG-3, JEG-3, Placenta",< 1 µM
same,IC50,"Homo sapiens, K562, K-562, CML",> 5 µM
same,IC50,"Homo sapiens, KATO III, KATOIII, Stomach",> 5 µM
same,IC50,"Homo sapiens, KM12, KM12, Colon",> 5 µM
same,IC50,"Homo sapiens, LOX IMVI, Skin",> 5 µM
same,IC50,"Homo sapiens, LS174T, Colon",1 to 5 µM
same,IC50,"Homo sapiens, LS-1034, LS1034, Colon",< 1 µM
same,IC50,"Homo sapiens, MC-IXC, neuroblastoma",< 1 µM
same,IC50,"Homo sapiens, MCF7, MCF7, Breast",< 1 µM
same,IC50,"Homo sapiens, MCF-10A, MCF10a, Breast (Normal)",< 1 µM
same,IC50,"Homo sapiens, MDA-MB-175-VII, Breast",1 to 5 µM
same,IC50,"Homo sapiens, MDA-MB-231, MDA-MB-231, Breast",1 to 5 µM
same,IC50,"Homo sapiens, MDA-MB-435, MDA-MB-435, Breast (Melanoma)",1 to 5 µM
same,IC50,"Homo sapiens, MDA-MB-453, MDA-MB-453, Breast",1 to 5 µM
same,IC50,"Homo sapiens, MDA-MB-468, MDA-MB-468, Breast",1 to 5 µM
same,IC50,"Homo sapiens, MES-SA, Sarcoma",> 5 µM
same,IC50,"Homo sapiens, MIA PaCa-2, MiaPaCa, Pancreas",< 1 µM
same,IC50,"Homo sapiens, MOLT-16, MOLT-16, acute lymphoblastic leukaemia",1 to 5 µM
same,IC50,"Homo sapiens, MV4-11, MV-4-11, acute leukaemia of ambiguous lineage",1 to 5 µM
same,IC50,"Homo sapiens, Malme-3M, Skin",> 5 µM
same,IC50,"Homo sapiens, NCI-H69, NCI-H69, Lung",1 to 5 µM
same,IC50,"Homo sapiens, NCI-H82, NCI-H82, Lung",1 to 5 µM
same,IC50,"Homo sapiens, NCI-H146, NCI-H146, Lung",> 5 µM
same,IC50,"Homo sapiens, NCI-H209, NCI-H209, Lung",1 to 5 µM

# Reference: patent US20100216779A1 (GLAXOSMITHKLINE LLC, priority 2007, published 2010)
